Reference: US10316348B2, “Diagnostic system and process for rapid bacterial infection diagnosis” (priority 2014, dated 2019)
Several values for one entry are separate records, joined by “and”; a condition that tells them apart may be missing. Identical values can stand only once.

Key:
[1] = system: P. aeruginosa strain PA14 biofilms; assay: Square wave voltammetry of pyocyanin produced by PA14 biofilms in a microfluidic growth chamber during antibiotic exposure; type: cell-based, Pseudomonas aeruginosa
Protocol: P. aeruginosa strain PA14 and m-cherry Escherichia coli strain K12 were used for all antibiotic tests performed. Trypticase soy broth (BD 211768) was used as the nutrient source for all bacteria grown in these tests. Colistin sulfate (Adipogen AG-CN2-0065-G001) was dissolved in trypticase soy broth (TSB) at 1 g/L and used as a stock solution. When not in use, the stock solution was stored at 4° C. Polydimethylsiloxane (Ellsworth Adhesives 184 Sil. Elast. Kit 0.5 kg) was used to prepare all microfluidic devices. Disposable three electrode cells (Zensor TE100) were used for all measurements in this study. The electrochemical cells consist of carbon working and counter electrodes with a Ag/AgCl paste reference electrode. Tubing and luer lock fittings for microfluidic connections were purchased from Amazon Supply (B001GMWZM) and Value Plastic (MTLL230). To prevent bacteria from leaving the microfluidic growth chambers, Minisart RC4 0.2 micron regenerated cellulose luer lock syringe filters (17821K) were attached to the inlets and outlets of the devices via 19 gauge luer lock syringes (NE192PL-25). A syringe pump (Harvard Apparatus Fusion 200 211097) was used to control the flow rate of growth media and antibiotic through the microfluidic chamber. Electrochemical measurements were made using a multipotentiostat (CHI 1040C A2728).
Polydimethylsiloxane (PDMS) wells were fabricated from 9 mm×9 mm tape molds made on glass slides (3M Scotch Tape, tape thickness ≈50 μm) using a standard method. […] Inlets and outlets in the wells were drilled and the resulting microfluidic devices were fabricated by irreversibly bonding PDMS to the disposable electrochemical cells using air plasma (Anatech SP-100, 5-7 s at 100 W). The microfluidic channels were filled with trypticase soy broth (TSB) at a flow rate of 10 μL/min. To facilitate complete filling of the chamber (removal of air bubbles), an empty syringe was attached to the outlet. By pulling and releasing vacuum on the outlet, TSB was pulled through the chamber displacing any air bubbles.
For antibiotic testing, cultures of PA14 and E. coli were grown over night in 3 mL of TSB (concentration approximately […]). After overnight growth, samples were centrifuged for 3 min at 10,000 rpm. The supernatant was discarded and the cultures were reconstituted in 3 mL of fresh TSB. After removing the inlet syringe filter, approximately 24 μL of reconstituted cell culture was loaded into the growth chamber at a flow rate of 10 μL/min. […] After overnight growth, flow at 0.1 μL/min was initiated with either TSB or colistin sulfate in TSB and the electrochemical response was monitored. […]

PA14 cells = assay: Live cell counts (LIVE/DEAD stain, haemocytometer) of biofilm removed from the device after antibiotic exposure; type: cell-based, Pseudomonas aeruginosa; conditions: PA14 biofilm exposed to 100 mg/L colistin sulfate, compared to 0 and 4 mg/L
Protocol: Cell viability after exposure to colistin sulfate was assessed using a LIVE/DEAD staining kit (EMD Chemicals Millipore 50-231-0606). Stains were prepared per manufacturer's operating procedure. After staining, 10 μL of sample was injected into an INCYTO C-chip disposable hemocytometer (DHC-N01). Cells were imaged using a fluorescence microscope, and the number of PA14 cells that were alive after exposure was determined using IMAGE J (ImageJ, U.S. National Institutes of Health, Bethesda, Md., USA, http://imagej.nih.gov/ij/).
The number of living cells measured after exposure to three different concentrations of colistin sulfate were compared (FIG. 11B). After the biofilm was exposed to antibiotic in the device, the PDMS chambers were peeled off and 100 μL of fresh TSB was spotted on the biofilm and pipetted vigorously to remove material from the surface of the electrode. Removed samples were used to measure live cell counts, performed with Millipore 3P Live/Dead Stain, using a haemocytometer. […] A concentration of approximately 4×10^5 live cells/mL was measured in the biofilms not exposed to colistin sulfate. […] A statistically significant reduction in the number of live PA14 cells was measured for samples exposed to 100 mg/L colistin sulfate compared to cells exposed to 0 and 4 mg/L colistin sulfate. […]

PA14 [2] = assay: Regrowth on TSB agar plates of cells taken from PDMS chambers after colistin sulfate exposure; type: cell-based, Pseudomonas aeruginosa; conditions: TSB plate
Protocol: FIG. 12 illustrates PA14 exposed to 100 mg/L and 4 mg/L colistin sulfate for 20 hours within PDMS chambers then spotted onto TSB plates. Photographs of a plate after incubation at 37° C. for A) 4.3 h, B) 6.5 h, and C) 74.3 h (removed from the incubator after 24 h to avoid drying and grown at room temperature (≈23° C.)). Arrows highlight the locations of the first observed PA14 colonies. A vertical line divides the areas on the plate where PA14 exposed to 100 mg/L (left) and 4 mg/L (right) colistin sulfate were spotted.
FIG. 22 illustrates PA14 streaked onto TSB after exposure to 100 mg/L and 4 mg/L colistin for 20 hours within PDMS flow chambers. Photographs show the plate after A) 4.33 h, B) 6.5 h, and C) 74.3 h of incubation. The plate was incubated at 37° C. for the first 24 hours, then grown at room temperature for the remaining time to prevent the agar from drying out.
The qualitative results of the live cell stain are consistent with the culture plate experiments. The live cell concentration in biofilms exposed to 100 mg/L colistin sulfate (FIG. 11B), however, is higher than expected when compared to the reduced rate of colony formation on agar plates (FIG. 12).
Regarding FIG. 22, after exposure to colistin sulpahte at 4 and 100 mg/L flowing at 100 nL/min, the PDMS chambers were peeled from the disposable electrodes. […] Samples were incubated at 37° C., and monitored for growth. […]

PA14 [3] = assay: Growth of liquid PA14 cultures plated on cetrimide agar plates containing colistin sulfate; type: cell-based, Pseudomonas aeruginosa
Protocol: FIG. 21 illustrates images of PA14 colonies after 20 hours of growth at 37° C. on cetrimide agar plates mixed with different concentrations of colistin sulfate.
Regarding FIG. 21, liquid cultures of PA14, grown over night in 3 mL of TSB, were plated directly onto cetrimide agar plates containing 0, 4, and 100 mg/L of colistin sulfate. These plates were incubated overnight at 37° C. The plates were then inspected for bacterial growth (FIG. 21).

P. aeruginosa = conditions: literature value, cited from earlier work

Row | Compound | average response (peak current, PYO production) compared to biofilms exposed to only TSB ([1]; PA14 biofilm exposed to 4 mg/L colistin sulfate, ANOVA) | average percent decrease in the maximum peak current at the end of testing ([1]; PA14 biofilm exposed to 100 mg/L colistin sulfate in TSB, flow 100 nL/min, compared to control cells) | average peak current compared against the control (ANOVA) ([1]; PA14 exposed to 16 and 100 mg/L colistin sulfate, P<0.05) | reduction in the number of living cells (PA14 cells) | incubation time after which growth (visible colonies) was observed (PA14 [2]; cells exposed to 4 mg/L colistin sulfate for 20 hours in chambers, 37° C.) | growth after 6.5 h of incubation (PA14 [2]; cells exposed to 100 mg/L colistin sulfate for 20 hours in chambers) | bacterial growth on plate after overnight incubation at 37° C. (PA14 [3]; cetrimide agar containing 4 mg/L colistin sulfate) | bacterial growth on plate after overnight incubation at 37° C. (PA14 [3]; cetrimide agar containing 100 mg/L colistin sulfate) | reported MIC (High MIC) (P. aeruginosa; higher MIC) | reported MIC (low MIC) (P. aeruginosa; lower MIC) | effect on PYO production (SWV response) ([1]; PA14 exposed to 100 mg/L ampicillin in TSB under flow)
1 | colistin sulfate | no significant difference | ~82% | significantly lower | ~2 × | 4.3 h and 4 h | No growth was observed | showed growth | showed no colony formation | 16 µg/mL | 4 µg/mL | 
2 | CC1(C)S[C@@H]2[C@H](NC(=O)[C@H](N)c3ccccc3)C(=O)N2[C@H]1C(=O)O [ampicillin] |  |  |  |  |  |  |  |  |  |  | no effect on PYO production
